This passage reports Kd results from US11319299B2, “Substituted carboxamides as inhibitors of WDR5 protein-protein binding” (PROPELLON THERAPEUTICS INC., priority 2016, dated 2022).

Molecules are shown by their SMILES.

The target in this experiment is WDR5 (Homo sapiens (Human), UniProt P61964). Briefly: Surface Plasmon Resonance (SPR) assay, KD and residence time. Format: binding. As to conditions: surface plasmon resonance (SPR); read-out: WDR5 binding affinity (KD).
The Kd is the concentration at which binding is half-saturated. On to `C[C@@H]1CN(c2cc(F)c(-c3cc(F)c(C(=O)NCC4CC4)c(F)c3)cc2NC(=O)c2c[nH]c(=O)cc2C(F)(F)F)C[C@H](C)N1C` [Example 712, N-[5-[4-(cyclopropylmethylcarbamoyl)-3,5-difluorophenyl]-4-fluoro-2-[(3R,5S)-3,4,5-trimethylpiperazin-1-yl]phenyl]-6-oxo-4-(trifluoromethyl)-1H-pyridine-3-carboxamide], for which the Kd came out at 0.00223 µM.
Next, `C[C@@H]1CN(c2cc(F)c(-c3csc(CN4CCOCC4)n3)cc2NC(=O)c2c[nH]c(=O)cc2C(F)(F)F)C[C@H](C)N1C` [Example 713, N-[4-fluoro-5-[2-(morpholin-4-ylmethyl)-1,3-thiazol-4-yl]-2-[(3R,5S)-3,4,5-trimethylpiperazin-1-yl]phenyl]-6-oxo-4-(trifluoromethyl)-1H-pyridine-3-carboxamide]: 0.00259 µM; `C[C@@H]1CN(c2cc(F)c(-c3cnn(CCN4CCOCC4)c3)cc2NC(=O)c2c[nH]c(=O)cc2C(F)(F)F)C[C@H](C)N1C` [Example 716, N-[4-fluoro-5-[1-(2-morpholin-4-ylethyl)pyrazol-4-yl]-2-[(3R,5S)-3,4,5-trimethylpiperazin-1-yl]phenyl]-6-oxo-4-(trifluoromethyl)-1H-pyridine-3-carboxamide]: 0.00242 µM; `C[C@@H]1CN(c2cc(F)c(-c3cnn(CCN4CCOCC4)c3)cc2NC(=O)c2cn(C)c(=O)cc2C(F)F)C[C@H](C)N1C` [Example 717, 4-(difluoromethyl)-N-[4-fluoro-5-[1-(2-morpholin-4-ylethyl)pyrazol-4-yl]-2-[(3R,5S)-3,4,5-trimethylpiperazin-1-yl]phenyl]-1-methyl-6-oxopyridine-3-carboxamide]: 0.0216 µM.
In the case of `C[C@@H]1CN(c2cc(F)c(-c3cnc(N4CCOCC4)nc3)cc2NC(=O)c2ccc(F)cc2C(F)F)C[C@H](C)N1C` [Example 722, 2-(difluoromethyl)-4-fluoro-N-[4-fluoro-5-(2-morpholin-4-ylpyrimidin-5-yl)-2-[(3R,5S)-3,4,5-trimethylpiperazin-1-yl]phenyl]benzamide] it was 0.00136 µM.
For the compound `CC(C)OC(=O)N1CCC=C(c2cc(NC(=O)c3c[nH]c(=O)cc3C(F)F)c(N3C[C@@H](C)N(C)[C@@H](C)C3)cc2F)CC1` [Example 723, propan-2-yl 4-[5-[[4-(difluoromethyl)-6-oxo-1H-pyridine-3-carbonyl]amino]-2-fluoro-4-[(3R,5S)-3,4,5-trimethylpiperazin-1-yl]phenyl]-2,3,6,7-tetrahydroazepine-1-carboxylate], the Kd turned out to be 0.00312 µM.
Regarding `CC(C)OC(=O)N1CCC=C(c2cc(NC(=O)c3c[nH]c(=O)cc3C(F)F)c(N3C[C@@H](C)N(C)[C@@H](C)C3)cc2F)C1` [Example 725, propan-2-yl 5-[5-[[4-(difluoromethyl)-6-oxo-1H-pyridine-3-carbonyl]amino]-2-fluoro-4-[(3R,5S)-3,4,5-trimethylpiperazin-1-yl]phenyl]-3,6-dihydro-2H-pyridine-1-carboxylate], the Kd worked out at 0.00159 µM.
As to `C[C@@H]1CN(c2cc(F)c(C3=CCCN(C(=O)OC4(C)CCC4)CC3)cc2NC(=O)c2c[nH]c(=O)cc2C(F)F)C[C@H](C)N1C` [Example 729, (1-methylcyclobutyl) 4-[5-[[4-(difluoromethyl)-6-oxo-1H-pyridine-3-carbonyl]amino]-2-fluoro-4-[(3R,5S)-3,4,5-trimethylpiperazin-1-yl]phenyl]-2,3,6,7-tetrahydroazepine-1-carboxylate], the Kd turned out to be 0.00311 µM.
Consider `C[C@@H]1CN(c2cc(F)c(C3=CCCN(C(=O)OC4CC(F)(F)C4)CC3)cc2NC(=O)c2c[nH]c(=O)cc2C(F)F)C[C@H](C)N1C` [Example 730, (3,3-difluorocyclobutyl) 4-[5-[[4-(difluoromethyl)-6-oxo-1H-pyridine-3-carbonyl]amino]-2-fluoro-4-[(3R,5S)-3,4,5-trimethylpiperazin-1-yl]phenyl]-2,3,6,7-tetrahydroazepine-1-carboxylate], for which the Kd was 0.00799 µM.
For the compound `C[C@@H]1CN(c2cc(F)c(C3=CCCN(c4ncc(C#N)s4)CC3)cc2NC(=O)c2c[nH]c(=O)cc2C(F)F)C[C@H](C)N1C` [Example 731, N-[5-[1-(5-cyano-1,3-thiazol-2-yl)-2,3,6,7-tetrahydroazepin-4-yl]-4-fluoro-2-[(3R,5S)-3,4,5-trimethylpiperazin-1-yl]phenyl]-4-(difluoromethyl)-6-oxo-1H-pyridine-3-carboxamide], the Kd amounted to 0.00761 µM.
`C[C@@H]1CN(c2cc(F)c(-c3ccc(C(=O)NC4CCCCC4)c(F)c3)cc2NC(=O)c2c[nH]c(=O)cc2C(F)(F)F)C[C@H](C)N1C` [Example 732, N-[5-[4-(cyclohexylcarbamoyl)-3-fluorophenyl]-4-fluoro-2-[(3R,5S)-3,4,5-trimethylpiperazin-1-yl]phenyl]-6-oxo-4-(trifluoromethyl)-1H-pyridine-3-carboxamide]: the Kd turned out to be 0.00276 µM.
Next, `C[C@@H]1CN(c2cc(F)c(-c3ccc(C(=O)N(C)CC4CC4)c(F)c3)cc2NC(=O)c2c[nH]c(=O)cc2C(F)(F)F)C[C@H](C)N1C` [Example 733, N-[5-[4-[cyclopropylmethyl(methyl)carbamoyl]-3-fluorophenyl]-4-fluoro-2-[(3R,5S)-3,4,5-trimethylpiperazin-1-yl]phenyl]-6-oxo-4-(trifluoromethyl)-1H-pyridine-3-carboxamide]: 0.00129 µM.
In the case of `C[C@@H]1CN(c2cc(F)c(-c3ccc(C(=O)NC4CCC(F)(F)CC4)c(F)c3)cc2NC(=O)c2c[nH]c(=O)cc2C(F)(F)F)C[C@H](C)N1C` [Example 734, N-[5-[4-[(4,4-difluorocyclohexyl)carbamoyl]-3-fluorophenyl]-4-fluoro-2-[(3R,5S)-3,4,5-trimethylpiperazin-1-yl]phenyl]-6-oxo-4-(trifluoromethyl)-1H-pyridine-3-carboxamide] it was 0.00413 µM; in that of `C[C@@H]1CN(c2cc(F)c(-c3ccc(C(=O)NCC4CC4)c(F)c3)cc2NC(=O)c2c[nH]c(=O)cc2C(F)(F)F)C[C@H](C)N1C` [Example 735, N-[5-[4-(cyclopropylmethylcarbamoyl)-3-fluorophenyl]-4-fluoro-2-[(3R,5S)-3,4,5-trimethylpiperazin-1-yl]phenyl]-6-oxo-4-(trifluoromethyl)-H-pyridine-3-carboxamide], 0.00423 µM; in that of `C[C@@H]1COCCN1c1ncc(-c2cc(NC(=O)c3ccc(F)cc3C(F)(F)F)c(N3CCN(C)[C@@H](C)C3)cc2F)cn1` [Example 737, 4-fluoro-N-[4-fluoro-2-[(3S)-3,4-dimethylpiperazin-1-yl]-5-[2-[(3R)-3-methylmorpholin-4-yl]pyrimidin-5-yl]phenyl]-2-(trifluoromethyl)benzamide], 0.00461 µM.
In the case of `C[C@@H]1CN(c2nccc(-c3cc(NC(=O)c4ccc(F)cc4C(F)(F)F)c(N4CCN(C)[C@@H](C)C4)cc3F)n2)CCO1` [Example 738, 4-fluoro-N-[4-fluoro-2-[(3S)-3,4-dimethylpiperazin-1-yl]-5-[2-[(2R)-2-methylmorpholin-4-yl]pyrimidin-4-yl]phenyl]-2-(trifluoromethyl)benzamide] it was 0.004 µM; in that of `C[C@@H]1CN(c2cc(F)c(-c3nc(CN4CCOCC4)cs3)cc2NC(=O)c2cn(C)c(=O)cc2C(F)F)C[C@H](C)N1C` [Example 741, 4-(difluoromethyl)-N-[4-fluoro-5-[4-(morpholin-4-ylmethyl)-1,3-thiazol-2-yl]-2-[(3R,5S)-3,4,5-trimethylpiperazin-1-yl]phenyl]-1-methyl-6-oxopyridine-3-carboxamide], 0.00675 µM.
For the compound `C[C@@H]1CN(c2nccc(-c3cc(NC(=O)c4cn(C)c(=O)cc4C(F)(F)F)c(N4C[C@@H](C)N(C)[C@@H](C)C4)cc3F)n2)C[C@H](C)O1` [Example 743, N-[4-fluoro-5-[2-[(2R,6S)-2,6-dimethylmorpholin-4-yl]pyrimidin-4-yl]-2-[(3R,5S)-3,4,5-trimethylpiperazin-1-yl]phenyl]-1-methyl-6-oxo-4-(trifluoromethyl)pyridine-3-carboxamide], the Kd was determined as 0.00522 µM.
As to `C[C@@H]1CN(c2nccc(-c3cc(NC(=O)c4c[nH]c(=O)cc4C(F)F)c(N4C[C@@H](C)N(C)[C@@H](C)C4)cc3F)n2)C[C@H](C)O1` [Example 744, 4-(difluoromethyl)-N-[4-fluoro-5-[2-[(2R,6S)-2,6-dimethylmorpholin-4-yl]pyrimidin-4-yl]-2-[(3S,5R)-3,4,5-trimethylpiperazin-1-yl]phenyl]-6-oxo-1H-pyridine-3-carboxamide], the Kd worked out at 0.00276 µM.
In the case of `C[C@@H]1CN(c2nccc(-c3cc(NC(=O)c4cn(C)c(=O)cc4C(F)F)c(N4C[C@@H](C)N(C)[C@@H](C)C4)cc3F)n2)C[C@H](C)O1` [Example 745, 4-(difluoromethyl)-N-[4-fluoro-5-[2-[(2R,6S)-2,6-dimethylmorpholin-4-yl]pyrimidin-4-yl]-2-[(3R,5S)-3,4,5-trimethylpiperazin-1-yl]phenyl]-1-methyl-6-oxopyridine-3-carboxamide] it was 0.0056 µM; in that of `C[C@@H]1CN(c2cc(F)c(-c3ccnc(N4CCOCC4)n3)cc2NC(=O)c2cn(C)c(=O)cc2C(F)F)C[C@H](C)N1C` [Example 746, 4-(difluoromethyl)-N-[4-fluoro-5-(2-morpholin-4-ylpyrimidin-4-yl)-2-[(3R,5S)-3,4,5-trimethylpiperazin-1-yl]phenyl]-1-methyl-6-oxopyridine-3-carboxamide], 13600 µM.
Next, `C[C@@H]1CN(c2cc(F)c(-c3ccc(C(=O)NC4CCCCC4(C)C)c(F)c3)cc2NC(=O)c2c[nH]c(=O)cc2C(F)(F)F)C[C@H](C)N1C` (stereo partly drawn) [Example 747, N-[5-[4-[(2,2-dimethylcyclohexyl)carbamoyl]-3-fluorophenyl]-4-fluoro-2-[(3R,5S)-3,4,5-trimethylpiperazin-1-yl]phenyl]-6-oxo-4-(trifluoromethyl)-1H-pyridine-3-carboxamide]: 0.00485 µM; `C[C@@H]1CN(c2cc(F)c(-c3ncc(CN4CCOCC4)s3)cc2NC(=O)c2cn(C)c(=O)cc2C(F)F)C[C@H](C)N1C` [Example 748, 4-(difluoromethyl)-N-[4-fluoro-5-[5-(morpholin-4-ylmethyl)-1,3-thiazol-2-yl]-2-[(3R,5S)-3,4,5-trimethylpiperazin-1-yl]phenyl]-1-methyl-6-oxopyridine-3-carboxamide]: 0.0518 µM.
